Key:
Human δ-opioid (DOP) = target: T1, Human δ-opioid (DOP) (Homo sapiens, UniProt P41143); assay: Radioligand binding, human δ-opioid (DOP) membranes, FlashPlate, [3H]-Bremazocine; settings: compound at 10 μM; for A1: inhibition of radioligand binding: human DOP membranes
T1 construct: purchased Perkin Elmer Biosignal
How it was run: (§1)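 Cloned human receptor membranes were coated onto FlashPlate wells and incubated with radioligand and compound (added from a 0.5 mM DMSO daughter plate) for 1 hour at room temperature in the dark. Scintillation counting gave percent inhibition, with DMSO defining total and reference ligand defining non-specific binding.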

Human κ-Opioid (KOP) = target: T2, Human κ-Opioid (KOP) (Homo sapiens, UniProt P41145); assay: Radioligand binding, human κ-opioid (KOP) membranes, filtration, [3H]-Diprenorphine; settings: compound at 10 μM; for A2: inhibition of radioligand binding: human KOP membranes
T2 construct: purchased Perkin Elmer Biosignal
T2 sequence (P41145 whole entry): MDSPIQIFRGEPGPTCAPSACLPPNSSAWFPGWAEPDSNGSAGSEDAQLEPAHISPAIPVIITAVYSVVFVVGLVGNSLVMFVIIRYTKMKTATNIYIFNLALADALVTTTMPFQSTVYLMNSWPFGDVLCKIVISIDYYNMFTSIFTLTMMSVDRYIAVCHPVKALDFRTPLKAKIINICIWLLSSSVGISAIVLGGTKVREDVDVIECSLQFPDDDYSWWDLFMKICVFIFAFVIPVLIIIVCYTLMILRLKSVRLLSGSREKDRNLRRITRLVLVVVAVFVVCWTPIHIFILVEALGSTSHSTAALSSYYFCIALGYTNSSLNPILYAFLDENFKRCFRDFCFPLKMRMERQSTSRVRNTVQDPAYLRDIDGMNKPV
How it was run: (§2)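 Percent inhibition of radioligand binding measured on recombinant human membranes: NK1 with [125I]-Substance P, KOP with [3H]-Diprenorphine. Incubation 1 h at room temperature, then harvest onto 0.3% PEI-soaked filters, cold Tris-HCl pH 7.4 washes and scintillation counting; non-specific binding from reference ligand wells.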

Human Melanocortin (MC3) = target: T3, Human Melanocortin (MC3) (Homo sapiens, UniProt P41968); assay: Radioligand binding, human melanocortin MC3 membranes, FlashPlate, [125I]-NDP-αMSH; settings: compound at 10 μM; for A3: inhibition of radioligand binding: human MC3 membranes
T3 construct: purchased Perkin Elmer Biosignal
T3 sequence (P41968 whole entry): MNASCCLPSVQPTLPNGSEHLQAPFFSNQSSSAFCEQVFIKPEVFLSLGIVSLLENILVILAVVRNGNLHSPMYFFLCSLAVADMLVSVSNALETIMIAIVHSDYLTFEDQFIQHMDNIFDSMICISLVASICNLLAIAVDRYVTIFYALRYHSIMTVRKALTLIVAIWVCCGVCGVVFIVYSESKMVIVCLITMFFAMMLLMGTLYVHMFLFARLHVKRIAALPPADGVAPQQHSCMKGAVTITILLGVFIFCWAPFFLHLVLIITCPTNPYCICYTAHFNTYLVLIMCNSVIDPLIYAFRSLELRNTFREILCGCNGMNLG
How it was run: as §1

Human Melanocortin (MC4) = target: T4, Human Melanocortin (MC4) (Homo sapiens, UniProt P32245); assay: Radioligand binding, human melanocortin MC4 membranes, FlashPlate, [125I]-NDP-αMSH; settings: compound at 10 μM; for A4: inhibition of radioligand binding: human MC4 membranes
T4 construct: purchased Perkin Elmer Biosignal
T4 sequence (P32245 whole entry): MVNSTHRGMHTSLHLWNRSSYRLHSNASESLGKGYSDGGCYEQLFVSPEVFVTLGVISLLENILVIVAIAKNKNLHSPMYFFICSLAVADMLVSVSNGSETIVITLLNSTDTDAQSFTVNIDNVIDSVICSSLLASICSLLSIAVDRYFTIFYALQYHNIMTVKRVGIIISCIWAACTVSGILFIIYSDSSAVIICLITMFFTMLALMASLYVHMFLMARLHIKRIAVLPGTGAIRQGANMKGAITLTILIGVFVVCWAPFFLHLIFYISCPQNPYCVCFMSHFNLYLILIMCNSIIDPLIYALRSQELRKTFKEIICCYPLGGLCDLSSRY
How it was run: as §1

Human melanocortin (MC5) = target: T5, Human melanocortin (MC5) (Homo sapiens, UniProt P33032); assay: Radioligand binding, human melanocortin MC5 membranes, FlashPlate, [125I]-NDP-αMSH; settings: compound at 10 μM; for A5: inhibition of radioligand binding: human MC5 membranes
T5 construct: purchased Perkin Elmer Biosignal
T5 sequence (P33032 whole entry): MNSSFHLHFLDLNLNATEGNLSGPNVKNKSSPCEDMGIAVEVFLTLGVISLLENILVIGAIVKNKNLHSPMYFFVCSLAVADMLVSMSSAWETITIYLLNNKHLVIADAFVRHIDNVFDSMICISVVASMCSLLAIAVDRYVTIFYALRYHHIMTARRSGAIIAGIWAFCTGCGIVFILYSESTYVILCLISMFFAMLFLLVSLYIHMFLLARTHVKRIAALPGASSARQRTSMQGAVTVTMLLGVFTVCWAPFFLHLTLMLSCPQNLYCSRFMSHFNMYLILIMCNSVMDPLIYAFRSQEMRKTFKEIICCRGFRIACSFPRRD
How it was run: as §1

[1] = target: T6, Human melanin-concentrating hormone (MCH1) (Homo sapiens, UniProt Q99705); assay: Radioligand binding, human melanin-concentrating hormone MCH1 membranes, FlashPlate, [125I]-S36057; settings: compound at 10 μM; for A6: inhibition of radioligand binding: [125I]-S36057, human MCH1 membranes
T6 construct: purchased Perkin Elmer Biosignal
T6 sequence (Q99705 whole entry): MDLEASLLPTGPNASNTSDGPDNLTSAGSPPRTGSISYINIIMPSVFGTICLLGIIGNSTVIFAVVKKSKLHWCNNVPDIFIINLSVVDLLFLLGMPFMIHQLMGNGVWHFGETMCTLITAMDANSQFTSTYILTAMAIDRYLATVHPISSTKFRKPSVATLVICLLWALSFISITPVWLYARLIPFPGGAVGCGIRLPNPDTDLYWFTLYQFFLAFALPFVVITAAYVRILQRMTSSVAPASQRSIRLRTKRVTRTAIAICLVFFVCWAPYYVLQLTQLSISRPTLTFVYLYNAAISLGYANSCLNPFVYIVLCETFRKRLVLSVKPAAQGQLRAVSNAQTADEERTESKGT
How it was run: as §1

Human μ-opioid (MOP) = target: T7, Human μ-opioid (MOP) (Homo sapiens, UniProt P35372); assay: Radioligand binding, human μ-opioid (MOP) membranes, FlashPlate, [3H]-Naloxone; settings: compound at 10 μM; for A7: inhibition of radioligand binding: human MOP membranes
T7 construct: purchased Perkin Elmer Biosignal
T7 sequence (P35372 whole entry): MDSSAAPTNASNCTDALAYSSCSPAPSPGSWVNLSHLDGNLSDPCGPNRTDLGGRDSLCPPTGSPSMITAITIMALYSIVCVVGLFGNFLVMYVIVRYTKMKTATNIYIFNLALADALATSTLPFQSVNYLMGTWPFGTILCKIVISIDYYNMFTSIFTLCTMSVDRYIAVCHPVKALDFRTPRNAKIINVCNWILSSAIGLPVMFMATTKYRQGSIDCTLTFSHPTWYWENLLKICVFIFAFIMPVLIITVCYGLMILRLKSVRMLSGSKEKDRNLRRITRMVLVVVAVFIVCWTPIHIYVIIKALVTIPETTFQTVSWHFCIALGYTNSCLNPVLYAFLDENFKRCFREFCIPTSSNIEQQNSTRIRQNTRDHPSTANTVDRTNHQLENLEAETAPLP
How it was run: as §1

Human neurokinin (NK1) = target: T8, Human neurokinin (NK1) (Homo sapiens, UniProt P25103); assay: Radioligand binding, human neurokinin NK1 membranes, filtration, [125I]-Substance P; settings: compound at 10 μM; for A8: inhibition of radioligand binding: human NK1 membranes
T8 construct: purchased Perkin Elmer Biosignal
T8 sequence (P25103 whole entry): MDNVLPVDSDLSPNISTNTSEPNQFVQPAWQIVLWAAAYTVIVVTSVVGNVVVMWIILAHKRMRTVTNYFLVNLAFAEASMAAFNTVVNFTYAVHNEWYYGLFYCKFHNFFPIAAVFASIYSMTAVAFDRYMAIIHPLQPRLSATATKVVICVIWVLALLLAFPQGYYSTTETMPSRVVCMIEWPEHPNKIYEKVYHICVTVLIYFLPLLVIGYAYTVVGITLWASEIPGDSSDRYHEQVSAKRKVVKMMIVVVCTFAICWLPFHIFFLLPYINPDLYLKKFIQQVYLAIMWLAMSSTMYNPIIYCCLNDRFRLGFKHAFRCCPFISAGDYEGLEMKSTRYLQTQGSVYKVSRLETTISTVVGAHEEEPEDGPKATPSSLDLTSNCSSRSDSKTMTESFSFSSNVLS
How it was run: as §2

[2] = target: T9, Human neuropeptide Y (NPY-Y1) (Homo sapiens, UniProt P25929); assay: Radioligand binding, human neuropeptide Y NPY-Y1 membranes, FlashPlate, [125I]-PYY; settings: compound at 10 μM
T9 construct: purchased Perkin Elmer Biosignal
T9 sequence (P25929 1-384): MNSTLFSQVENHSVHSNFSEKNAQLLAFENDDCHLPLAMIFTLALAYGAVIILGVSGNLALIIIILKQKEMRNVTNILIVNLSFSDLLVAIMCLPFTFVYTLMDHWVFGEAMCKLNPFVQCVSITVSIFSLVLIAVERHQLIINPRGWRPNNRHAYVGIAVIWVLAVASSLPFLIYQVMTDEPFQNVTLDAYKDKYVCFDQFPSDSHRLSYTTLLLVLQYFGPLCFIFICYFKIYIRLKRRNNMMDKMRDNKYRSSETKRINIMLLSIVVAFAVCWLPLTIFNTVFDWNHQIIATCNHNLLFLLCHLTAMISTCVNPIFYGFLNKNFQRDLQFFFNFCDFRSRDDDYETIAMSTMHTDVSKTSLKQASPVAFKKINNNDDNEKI
How it was run: as §1

Human opioid (ORL1) = target: T10, Human opioid (ORL1) (Homo sapiens, UniProt P41146); assay: Radioligand binding, human opioid ORL1 membranes, FlashPlate, [125I]-Nociceptin; settings: compound at 10 μM
T10 construct: purchased Perkin Elmer Biosignal
T10 sequence (P41146 whole entry): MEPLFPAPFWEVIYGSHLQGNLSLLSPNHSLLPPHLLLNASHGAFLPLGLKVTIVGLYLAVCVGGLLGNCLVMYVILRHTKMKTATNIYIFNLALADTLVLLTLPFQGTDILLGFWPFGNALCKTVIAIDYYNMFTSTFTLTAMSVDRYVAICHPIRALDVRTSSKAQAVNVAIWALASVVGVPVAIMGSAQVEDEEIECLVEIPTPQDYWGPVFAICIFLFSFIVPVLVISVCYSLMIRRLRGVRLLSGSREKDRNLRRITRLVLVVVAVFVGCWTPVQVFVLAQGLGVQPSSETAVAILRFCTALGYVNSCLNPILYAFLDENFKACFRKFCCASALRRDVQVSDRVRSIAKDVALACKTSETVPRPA
How it was run: as §1

Mouse urotensin (mUR2) = target: T11, Mouse urotensin (mUR2) (Mus musculus, UniProt Q8VIH9); assay: Radioligand binding, mouse urotensin mUR2 membranes, FlashPlate, [125I]-Urotensin II; settings: compound at 10 μM; for A11: inhibition of radioligand binding: mouse mUR2 membranes
T11 construct: purchased Perkin Elmer Biosignal
T11 sequence (Q8VIH9 1-385): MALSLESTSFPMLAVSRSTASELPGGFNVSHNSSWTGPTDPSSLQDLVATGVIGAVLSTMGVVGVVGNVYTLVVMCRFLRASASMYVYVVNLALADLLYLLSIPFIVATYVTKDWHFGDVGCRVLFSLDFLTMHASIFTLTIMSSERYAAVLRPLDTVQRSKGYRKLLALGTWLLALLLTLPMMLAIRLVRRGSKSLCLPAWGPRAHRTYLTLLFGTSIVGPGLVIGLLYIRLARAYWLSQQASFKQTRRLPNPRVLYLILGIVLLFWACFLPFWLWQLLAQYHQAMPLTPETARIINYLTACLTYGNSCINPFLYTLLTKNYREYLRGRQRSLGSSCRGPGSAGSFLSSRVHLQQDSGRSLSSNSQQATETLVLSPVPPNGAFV
How it was run: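 Cloned mouse urotensin (mUR2) receptor membranes from Perkin Elmer Biosignal were immobilized in FlashPlate microplates using a proprietary coating. Each well got 19.5 μl buffer, then 0.5 μl of DMSO, reference ligand, or compound. Adding 5 μl of [125I]-Urotensin II, diluted to 5× final concentration in binding buffer, started binding. Plates were sealed with TopSeal-A and incubated 1 hour at room temperature in the dark. Wells were counted for 30 seconds each on a TopCount after a 60-second delay, and percentage inhibition was calculated.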

[3] = [125I]-PYY, human NPY-Y1 membranes

T1 sequence (P41143 whole entry): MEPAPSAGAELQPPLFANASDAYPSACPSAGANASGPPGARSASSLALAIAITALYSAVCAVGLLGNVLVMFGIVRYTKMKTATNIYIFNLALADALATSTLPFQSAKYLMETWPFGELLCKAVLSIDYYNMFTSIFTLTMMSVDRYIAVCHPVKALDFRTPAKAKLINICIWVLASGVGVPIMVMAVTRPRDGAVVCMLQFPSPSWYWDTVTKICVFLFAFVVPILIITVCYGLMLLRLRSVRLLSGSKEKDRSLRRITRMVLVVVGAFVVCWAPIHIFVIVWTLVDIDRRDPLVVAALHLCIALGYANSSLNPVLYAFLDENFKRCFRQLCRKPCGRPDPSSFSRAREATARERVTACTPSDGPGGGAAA

Structure (SMILES): CO[C@H]1[C@H](O)[C@@H](COCc2ccc(Cl)cc2)OC(OCCc2ccccc2)[C@@H]1NC(=O)CCCNC(=N)N (some centres unmarked) [compound 122]
- A1 radioligand binding, percentage inhibition (Human δ-opioid (DOP); [3H]-Bremazocine): − (“−” indicates less than 50% inhibition at 10 μM)
- A2 radioligand binding, percentage inhibition (Human κ-Opioid (KOP); [3H]-Diprenorphine): − (“−” indicates less than 50% inhibition at 10 μM)
- A3 radioligand binding, percentage inhibition (Human Melanocortin (MC3); [125I]-NDP-αMSH): − (“−” indicates less than 50% inhibition at 10 μM)
- A4 radioligand binding, percentage inhibition (Human Melanocortin (MC4); [125I]-NDP-αMSH): + (“+” indicates greater than 50% inhibition at 10 μM)
- A5 radioligand binding, percentage inhibition (Human melanocortin (MC5); [125I]-NDP-αMSH): + (“+” indicates greater than 50% inhibition at 10 μM)
- A6 radioligand binding, percentage inhibition ([1]; [125I]-S36057): − (“−” indicates less than 50% inhibition at 10 μM)
- A7 radioligand binding, percentage inhibition (Human μ-opioid (MOP); [3H]-Naloxone): − (“−” indicates less than 50% inhibition at 10 μM)
- A8 radioligand binding, percentage inhibition (Human neurokinin (NK1); [125I]-Substance P): + (“+” indicates greater than 50% inhibition at 10 μM)
- A9 radioligand binding, percentage inhibition ([2]; [125I]-PYY): − (“−” indicates less than 50% inhibition at 10 μM)
- A10 radioligand binding, percentage inhibition (Human opioid (ORL1); [125I]-Nociceptin): − (“−” indicates less than 50% inhibition at 10 μM)
- A11 radioligand binding, percentage inhibition (Mouse urotensin (mUR2); [125I]-Urotensin II): − (“−” indicates less than 50% inhibition at 10 μM)

Structure (SMILES): COC[C@H]1OC(OCCc2ccccc2)[C@H](NC(=O)CNC(=N)N)[C@@H](OCc2ccc(Cl)cc2)[C@@H]1O (some centres unmarked) [compound 48]
- A1 radioligand binding inhibition (Human δ-opioid (DOP); human δ-opioid (DOP) membranes): − (“−” indicates less than 50% inhibition at 10 μM)
- A2 radioligand binding inhibition (Human κ-Opioid (KOP); human κ-opioid (KOP) membranes): − (“−” indicates less than 50% inhibition at 10 μM)
- A3 radioligand binding inhibition (Human Melanocortin (MC3); human melanocortin MC3 membranes): − (“−” indicates less than 50% inhibition at 10 μM)
- A4 radioligand binding inhibition (Human Melanocortin (MC4); human melanocortin MC4 membranes): + (“+” indicates greater than 50% inhibition at 10 μM)
- A5 radioligand binding inhibition (Human melanocortin (MC5); human melanocortin MC5 membranes): + (“+” indicates greater than 50% inhibition at 10 μM)
- A6 radioligand binding inhibition ([1]; human MCH1 membranes): + (“+” indicates greater than 50% inhibition at 10 μM)
- A7 radioligand binding inhibition (Human μ-opioid (MOP); human μ-opioid (MOP) membranes): − (“−” indicates less than 50% inhibition at 10 μM)
- A8 radioligand binding inhibition (Human neurokinin (NK1); human neurokinin NK1 membranes): − (“−” indicates less than 50% inhibition at 10 μM)
- A9 radioligand binding inhibition ([2]; human NPY-Y1 membranes): − (“−” indicates less than 50% inhibition at 10 μM)
- A10 radioligand binding inhibition (Human opioid (ORL1); human ORL1 membranes): − (“−” indicates less than 50% inhibition at 10 μM)
- A11 radioligand binding inhibition (Mouse urotensin (mUR2); mouse urotensin mUR2 membranes): − (“−” indicates less than 50% inhibition at 10 μM)

Structure (SMILES): N=C(N)NCC(=O)NC1C(OCc2ccc(Cl)cc2)OC(COCc2ccccc2)C(O)C1OCc1ccc(Cl)cc1 (centres unmarked) [compound 418]
- A1: inhibition of radioligand binding (Human δ-opioid (DOP); [3H]-Bremazocine): − (“−” indicates less than 50% inhibition at 10 μM)
- A2: inhibition of radioligand binding (Human κ-Opioid (KOP); [3H]-Diprenorphine): − (“−” indicates less than 50% inhibition at 10 μM)
- A3: inhibition of radioligand binding (Human Melanocortin (MC3); [125I]-NDP-αMSH): + (“+” indicates greater than 50% inhibition at 10 μM)
- A4: inhibition of radioligand binding (Human Melanocortin (MC4); [125I]-NDP-αMSH): + (“+” indicates greater than 50% inhibition at 10 μM)
- A5: inhibition of radioligand binding (Human melanocortin (MC5); [125I]-NDP-αMSH): + (“+” indicates greater than 50% inhibition at 10 μM)
- A6: inhibition of radioligand binding [1]: + (“+” indicates greater than 50% inhibition at 10 μM)
- A7: inhibition of radioligand binding (Human μ-opioid (MOP); [3H]-Naloxone): − (“−” indicates less than 50% inhibition at 10 μM)
- A8: inhibition of radioligand binding (Human neurokinin (NK1); [125I]-Substance P): + (“+” indicates greater than 50% inhibition at 10 μM)
- A9: inhibition of radioligand binding [2, 3]: − (“−” indicates less than 50% inhibition at 10 μM)
- A10: inhibition of radioligand binding (Human opioid (ORL1); [125I]-Nociceptin, human ORL1 membranes): + (“+” indicates greater than 50% inhibition at 10 μM)
- A11: inhibition of radioligand binding (Mouse urotensin (mUR2); [125I]-Urotensin II): − (“−” indicates less than 50% inhibition at 10 μM)

Structure (SMILES): NCCCC(=O)NC1C(OCc2ccc3ccccc3c2)OC(COCc2ccccc2)C(O)C1OCc1ccc(Cl)cc1 (single isomer, unassigned) [compound 457]
- A1: inhibition of radioligand binding (Human δ-opioid (DOP); [3H]-Bremazocine): − (“−” indicates less than 50% inhibition at 10 μM)
- A2: inhibition of radioligand binding (Human κ-Opioid (KOP); [3H]-Diprenorphine): − (“−” indicates less than 50% inhibition at 10 μM)
- A3: inhibition of radioligand binding (Human Melanocortin (MC3); [125I]-NDP-αMSH): − (“−” indicates less than 50% inhibition at 10 μM)
- A4: inhibition of radioligand binding (Human Melanocortin (MC4); [125I]-NDP-αMSH, 10 µM): − (“−” indicates less than 50% inhibition at 10 μM)
- A5: inhibition of radioligand binding (Human melanocortin (MC5); [125I]-NDP-αMSH, 10 µM): − (“−” indicates less than 50% inhibition at 10 μM)
- A6: inhibition of radioligand binding ([1]; 10 µM): − (“−” indicates less than 50% inhibition at 10 μM)
- A7: inhibition of radioligand binding (Human μ-opioid (MOP); [3H]-Naloxone, 10 µM): + (“+” indicates greater than 50% inhibition at 10 μM)
- A8: inhibition of radioligand binding (Human neurokinin (NK1); [125I]-Substance P): + (“+” indicates greater than 50% inhibition at 10 μM)
- A9: inhibition of radioligand binding [2, 3]: − (“−” indicates less than 50% inhibition at 10 μM)
- A10: inhibition of radioligand binding (Human opioid (ORL1); [125I]-Nociceptin, human ORL1 membranes, 10 µM): + (“+” indicates greater than 50% inhibition at 10 μM)
- A11: inhibition of radioligand binding (Mouse urotensin (mUR2); [125I]-Urotensin II): − (“−” indicates less than 50% inhibition at 10 μM)

From patent US20080009418A1, “Selective Inhibitors” (Alchemia LTD., priority 2004, published 2008)
